Results on one compound are retold here after patent US20140094465A1, “Compounds as S-Nitrosoglutathione Reductase Inhibitors” (N30 PHARMACEUTICALS, INC., priority 2011, published 2014).

The test deals with cigarette smoke-induced COPD. The test is described as follows: Acute (4 day) cigarette smoke exposure COPD model. To be noted: acute 4 day smoke model. The test is classed as in vivo, mouse. The protocol:
The efficacy of GSNOR inhibitors was assessed in a mouse model of chronic obstructive pulmonary disease (COPD) induced by short duration (4 days or 11 days) of exposure to cigarette smoke. Infiltration of inflammatory cells into the bronchoalveolar lavage fluid (BALF) and BALF levels of chemokines involved in inflammation and tissue turnover/repair were measured to assess the influences of GSNOR inhibitors on some of the early events associated with the initiation and progression of COPD.
Efficacy of GSNOR inhibitors against COPD was explored using acute (4 day) and subchronic (11 day) models of cigarette smoke-induced COPD in mice. […] In animal models, changes in lung pathology are only evident after extended (several months) duration of exposure to cigarette smoke, thus making chronic models prohibitive as effective screening tools. More recently, models exploring inflammatory responses after short duration (2 weeks or less) of smoke exposure in mice have been utilized as tools for screening efficacy and mechanisms of action of novel therapeutics against COPD. The key roles of inflammation in the initiation and progression of COPD, make these short duration models relevant for initial tests of efficacy of novel therapeutics.
Female C57Bl/6 mice (N=8 per group) were exposed to cigarette smoke using a whole body exposure chamber. Mice were exposed daily for 4 consecutive days to 4 cycles of smoke from 6 sequential cigarettes (Kentucky 3R4F without filter) with a 30 minute smoke free interval between cycles. GSNOR inhibitors were administered daily via oral dosing at 10 mg/kg/day for 7 days starting 2 days prior to smoke exposure and continuing 1 day post-exposure. The effects of GSNOR inhibitors were assessed by quantitating the numbers of total cells, leukocytes, and leukocytes differentials in the BALF via light microscopy and the levels of BALF chemokines via ELISA at approximately 24 h after the last smoke exposure. The effect of GSNOR inhibitors were compared to vehicle treated controls. The PDE4 inhibitor, roflumilast, was used as the positive control for the study. A group of naïve mice (N=8) was exposed to air and used as a negative control for the study.

Turning to `O=c1c2ccc(O)cc2oc(C(F)(F)F)c1[C@H]1CC[C@H](C(=O)O)CC1` [IV-25], the “effects compared with roflumilast” value was “comparable to or greater than those observed for roflumilast”. Also, the BALF chemokines result (oral 10 mg/kg/day for 7 days) is listed as “restored BALF chemokines towards levels observed in naïve mice”.
